Laboratory results: ChEMBL document CHEMBL2177086, “Design and synthesis of a stable oxidized phospholipid mimic with specific binding recognition for macrophage scavenger receptors” (J Med Chem, 2012)
Activity calls are given as the source filed them. The calls are words filed in the database; no cut-off is given here.

Key:
[1] = biological target: Platelet glycoprotein 4 (Mus musculus) (UniProt Q08857); assay: Displacement of Bt-CuOxLDL from CD36 receptor in mouse J774 cells after 2 hrs by chemiluminescent assay; format: cell-based
J774 [2] = assay: Cytotoxicity against mouse J774 macrophages assessed as effect on cell number up to 72 hrs; format: cell-based; details: j774, 72 h
J774 [3] = assay: Cytotoxicity against mouse J774 macrophages assessed as effect on protein content up to 72 hrs; format: cell-based; details: j774, 72 h
[4] = biological target: Platelet glycoprotein 4 (Homo sapiens) (UniProt P16671); assay: Displacement of CuOxLDL from CD36 receptor expressed in CHO cells; format: cell-based
[5] = Binding affinity to monoclonal antibody E06 by solid phase chemiluminescent immunoassay

Chain of Platelet glycoprotein 4 (Mus musculus) (Q08857 whole entry): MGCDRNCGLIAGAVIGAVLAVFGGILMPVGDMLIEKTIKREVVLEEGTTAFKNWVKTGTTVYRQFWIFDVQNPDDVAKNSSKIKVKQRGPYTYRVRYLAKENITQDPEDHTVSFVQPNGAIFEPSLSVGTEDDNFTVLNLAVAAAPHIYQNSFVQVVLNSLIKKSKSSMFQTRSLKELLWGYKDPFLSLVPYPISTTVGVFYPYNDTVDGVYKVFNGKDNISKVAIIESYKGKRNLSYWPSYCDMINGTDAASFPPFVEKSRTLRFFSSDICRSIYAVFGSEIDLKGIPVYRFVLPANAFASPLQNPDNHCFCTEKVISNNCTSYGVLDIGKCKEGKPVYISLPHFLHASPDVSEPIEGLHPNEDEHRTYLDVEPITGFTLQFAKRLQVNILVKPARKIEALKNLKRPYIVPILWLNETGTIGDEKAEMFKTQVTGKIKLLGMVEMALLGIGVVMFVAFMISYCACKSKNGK
Chain of Platelet glycoprotein 4 (Homo sapiens) (P16671 whole entry): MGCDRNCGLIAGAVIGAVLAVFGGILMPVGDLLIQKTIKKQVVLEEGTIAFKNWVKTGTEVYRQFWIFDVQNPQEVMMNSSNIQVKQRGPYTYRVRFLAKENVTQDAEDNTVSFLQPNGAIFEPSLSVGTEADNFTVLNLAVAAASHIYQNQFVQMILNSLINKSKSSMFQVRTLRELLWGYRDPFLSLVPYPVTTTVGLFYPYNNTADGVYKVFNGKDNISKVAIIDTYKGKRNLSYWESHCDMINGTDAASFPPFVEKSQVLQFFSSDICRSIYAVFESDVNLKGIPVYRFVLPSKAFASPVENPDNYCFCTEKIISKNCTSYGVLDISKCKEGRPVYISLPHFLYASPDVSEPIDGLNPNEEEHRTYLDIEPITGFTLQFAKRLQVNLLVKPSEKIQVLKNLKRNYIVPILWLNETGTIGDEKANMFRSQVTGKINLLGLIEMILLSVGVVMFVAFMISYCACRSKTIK

| Compound | inhibition [1] | Activity (J774 [2]) | Activity (J774 [3]) | Activity [4] | Activity [5] | Activity [1] [%] |
| --- | --- | --- | --- | --- | --- | --- |
| H-TGTKGG-OH | inactive | – | – | – | – | – |
| CCCCCCCCCCCCCCCC(=O)OC[C@H](COP(=O)([O-])OCC[N+](C)(C)C)OC(=O)CCCCN(C)CCCC[C@H](NC(=O)[C@@H](NC(=O)CNC(=O)[C@@H](NC(C)=O)[C@@H](C)O)[C@@H](C)O)C(=O)NCC(=O)NCC(=O)O | – | Non-toxic | Non-toxic | Active | Active | > 99 |
